PMC8880313, “Discovery of Novel Andrographolide Derivatives as Antiviral Inhibitors against Human Enterovirus A71” (Pharmaceuticals, 2022)

Experiments:
[1] = tested on: EV-A71; experiment: Immunofluorescence-based preliminary screen of EV-A71-infected RD cells; assay type: cell-based, human enterovirus A71 (EV-A71) strain 41; details: EV-A71-infected RD cells (MOI = 1)
Text: The screening assay was built using an immunofluorescence approach that was previously established and validated, with DAPI-stained nuclei accounting for total cell count and FITC-stained EV-A71 accounting for infected cell count upon EV-A71 infection and compound treatment. Both cell counts would then be used to calculate percentage infection and percentage inhibition to identify for hits. Before the screening platform can be employed to screen for potential antivirals, its robustness has to be appraised. In this study, Z-factor was calculated to assess the robustness of the screening platform. Firstly, seeded RD cells were either infected with EV-A71 (Multiplicity of Infection of 1) or mock-infected with media. The cells were then fixed, stained and imaged 12 h post-infection (hpi). The IFA images were analyzed with the Cell Profiler software to determine the infection rate of each well. Between the virus-infected and mock-infected wells, a clear distinction in infection rates could be observed (Figure 1a). […] In this case, the Z-factor, measured at 0.818, was indicative of a highly robust screening platform for high-throughput screening. The constructed screening platform was then employed to screen the compound library made up of 344 chemically synthesized novel compounds analogous to andrographolide. The compounds were screened at 10 µM with IFA images taken and analyzed to identify for hits. Treatment with 0.1% DMSO was used as vehicle control.
Seeded 96-well plates (Corning Inc., Corning, NY, USA), with 2 × 10^4 RD cells per well, were incubated overnight at 37 °C with 5% CO2. The seeded cells were then infected with EV-A71 (50 µL per well, MOI = 1) for 1 h at 37 °C with 5% CO2. The EV-A71-infected cells were then treated with the compound library at a final concentration of 10 µM for 12 h at 37 °C with 5% CO2. Treatment with 0.1% DMSO was used as vehicle control. Following treatment, cells were fixed with 100 µL of methanol (Sinopharm Chemical, Shanghai, China) for 15 min at −20°C and rinsed with 100 µL of 1x PBS for three times before performing indirect immunofluorescence assay (IFA). Anti-EV-A71 VP2 1° antibodies, MAB979 (Merck Millipore, Burlington, VT, USA), diluted 500-fold in PBS, was incubated with the fixed cells for 1 h at 37 °C. Cells were then rinsed thrice with PBS and incubated with anti-mouse FITC 2° antibodies (Merck Millipore), diluted 200-fold in PBS, for 1 h at 37 °C. After which, the cells were rinsed thrice with PBS before staining with DAPI (Sigma-Aldrich) at room temperature for 15 min. Cells were then rinsed thrice and preserved in 100 µL of PBS before imaging with the Operetta High-Content Imaging System and the Harmony High-Content Imaging and Analysis Software (Perkin Elmer, Waltham, MA, USA). Images of stained cells were captured with the DAPI and FITC fluorescence filters, from a pre-determined central position of each well and processed with the Cell Profiler software. […] The percentage infection (PI) for each well was calculated using the formula: Infected cell count/Total cell count × 100%. The percentage inhibition for each well was calculated using the formula PI0− PI/PI0 × 100% where PI0 refers to the percentage infection of wells treated with the vehicle control while PI refers to the percentage infection of wells treated with the compounds.

[2] = tested on: CV-B5; experiment: Post-treatment assay, antiviral spectrum; assay type: cell-based, Coxsackievirus B5
Procedure: We were also interested in the antiviral potential of ZAF-47 against other Enteroviruses. As such, we performed post-treatment assay on RD cells infected with other Enteroviruses such as CV-A16, CV-A6, Echo7, CV-B5, CV-A24 and EV-D68.
To determine the inhibitory profiles of the hits, post treatment assay was performed. Seeded 24-well plates, with 1.5 × 10^5 RD cells per well, were incubated overnight at 37 °C with 5% CO2. The seeded cells were infected with EV-A71 (100 µL per well, MOI = 1) for 1 h at 37 °C with 5% CO2 and then rinsed with 1 mL of PBS twice. Different concentrations of the hits were used to treat the infected cells for 12 h at 37 °C with 5% CO2. At 12 hpi, the plates were frozen and thawed for 2 cycles (−80°C; 37 °C) before collection of supernatants to measure the viral titres via viral plaque assay.
Measurement of the viral titres from collected supernatants was derived from viral plaque assays. To do this, 24-well plates, seeded with 2.4 × 10^5 RD cells per well, were used in plaque assays for EV-A71, EV-D68, Echo7, CV-A6, CV-A16 and CV-A24 while 24-well plates, seeded with 1.2 × 10^5 Vero cells per well, were used in plaque assays for CV-B5. Seeded cells were incubated overnight at 37 °C with 5% CO2. […] Subsequent formation of viral plaques was counted manually to quantify the viral titre in PFU/mL […]

## CC(=O)OC[C@]1(C)C(=O)CC[C@@]2(C)C(C/C=C3/C(=O)OC[C@@H]3Oc3cccc4cccnc34)=C(C)CC[C@@H]21 [ZAF-47, (14β)-(8′-Quinolinoxy)-3-ketone-9-dehydro-17-hydro-19-acetoxy–andrographolide]
[1]; 10 µM, 12 h, 0.1% DMSO wells 998
  Nuclei Count: 955
[1]; Enterovirus A, EVA71, 12 h, read-out: Inhibition Rate (%)
  inhibition at 10 µM: 77.1%
[2]; 10 µM, CV-B5-infected RD cells
  viral titre: reducing the viral titres of the above-listed enteroviruses significantly
[2]; CVB5, CV-B5, Enterovirus B, drug treatment duration 12 h, RD cells
  IC50: 2460 nM
